Source: PubChem BioAssay (NCI)
Values joined by “and” are separate entries in the source; they are usually repeats but may differ in a detail not shown here. Equal entries are not always repeated.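 Test compounds were applied to cells in 96-well plates for 48 hours at 5 doses. GI50 = concentration required for 50% inhibition of growth. TGI: concentration producing complete growth inhibition.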

What was measured:
Experiment in all cases: DTP human tumour cell line panel, 48 h
786-0 renal = tested on: 786-0 renal
KM20L2 colon = tested on: KM20L2 colon
RPMI-8226 leukemia = tested on: RPMI-8226 leukemia
IGROV1 ovarian = tested on: IGROV1 ovarian
MOLT-4 leukemia = tested on: MOLT-4 leukemia
UACC-62 melanoma = tested on: UACC-62 melanoma
DMS 114 small cell lung = tested on: DMS 114 small cell lung
NCI-H522 lung = tested on: NCI-H522 lung
UO-31 renal = tested on: UO-31 renal
DU-145 prostate = tested on: DU-145 prostate

CC(=O)OCc1c(O)c2c([nH]c1=O)CCc1ccccc1-2
TGI (786-0 renal): 115 µM
TGI (KM20L2 colon): 263 µM
TGI (RPMI-8226 leukemia): > 350 µM
TGI (IGROV1 ovarian): > 350 µM
TGI (MOLT-4 leukemia): > 350 µM
TGI (UACC-62 melanoma): 119 µM
TGI (DMS 114 small cell lung): 155 µM
TGI (NCI-H522 lung): 84.6 µM

Nc1nc(=O)n(C2CCC(CO)O2)cc1F (configuration not stated)
TGI (UO-31 renal): > 100 µM
TGI (786-0 renal): > 100 µM
TGI (KM20L2 colon): > 100 µM
TGI (RPMI-8226 leukemia): > 100 µM
TGI (MOLT-4 leukemia): > 100 µM
TGI (DMS 114 small cell lung): > 100 µM
TGI (NCI-H522 lung): > 100 µM

O=C(O)Cc1cccc2c(=O)cc(-c3ccccc3)oc12
GI50 (UO-31 renal): 25.5 µM
TGI (UO-31 renal): > 64.4 µM and 174 µM and 334 µM
GI50 (786-0 renal): > 250 µM
TGI (786-0 renal): > 1000 µM
TGI (KM20L2 colon): > 250 µM
GI50 (RPMI-8226 leukemia): 388 µM
TGI (RPMI-8226 leukemia): 250 µM and > 1000 µM
GI50 (IGROV1 ovarian): 518 µM
TGI (IGROV1 ovarian): > 1000 µM
GI50 (MOLT-4 leukemia): 288 µM
TGI (MOLT-4 leukemia): > 824 µM
GI50 (UACC-62 melanoma): 475 µM
TGI (UACC-62 melanoma): > 1000 µM
TGI (DMS 114 small cell lung): 250 µM
GI50 (NCI-H522 lung): 285 µM
TGI (NCI-H522 lung): 250 µM and > 773 µM
GI50 (DU-145 prostate): > 250 µM
TGI (DU-145 prostate): > 1000 µM

O=C1CCCCCCC2=C1C(Sc1ccccc1)CC2 (configuration not stated)
TGI (UO-31 renal): 92.1 µM
TGI (786-0 renal): 33 µM
TGI (KM20L2 colon): > 100 µM
TGI (RPMI-8226 leukemia): 95.5 µM
TGI (MOLT-4 leukemia): > 100 µM
TGI (UACC-62 melanoma): > 100 µM
TGI (DMS 114 small cell lung): 76.4 µM
TGI (NCI-H522 lung): 41.4 µM

CCC[CH2][Sn](=[O])[CH2]CCC
GI50 (UO-31 renal): > 50 µM
TGI (UO-31 renal): > 50 µM
GI50 (786-0 renal): > 50 µM
TGI (786-0 renal): > 50 µM
GI50 (KM20L2 colon): > 50 µM
TGI (KM20L2 colon): > 50 µM
GI50 (RPMI-8226 leukemia): > 50 µM
TGI (RPMI-8226 leukemia): > 50 µM
GI50 (IGROV1 ovarian): > 50 µM
TGI (IGROV1 ovarian): > 50 µM
GI50 (MOLT-4 leukemia): > 50 µM
TGI (MOLT-4 leukemia): > 50 µM
GI50 (UACC-62 melanoma): > 50 µM
TGI (UACC-62 melanoma): > 50 µM
GI50 (DMS 114 small cell lung): > 50 µM
TGI (DMS 114 small cell lung): > 50 µM
GI50 (NCI-H522 lung): > 50 µM
TGI (NCI-H522 lung): > 50 µM

CCCCN(CC)C(=O)C(=O)Cc1nc2ccc(C(=O)c3ccccc3)cc2[nH]c1=O
TGI (UO-31 renal): > 100 µM
TGI (786-0 renal): > 100 µM
TGI (KM20L2 colon): > 100 µM
TGI (RPMI-8226 leukemia): > 31.6 µM
TGI (IGROV1 ovarian): > 100 µM
TGI (MOLT-4 leukemia): > 31.6 µM
TGI (UACC-62 melanoma): > 100 µM
TGI (DMS 114 small cell lung): > 100 µM
TGI (NCI-H522 lung): 75 µM

CC(C)(C)C1=CC(=N/N=c2\scc(-c3ccccc3)n2-c2ccccc2)C=C(C(C)(C)C)C1=O
TGI (UO-31 renal): > 100 µM
TGI (786-0 renal): > 100 µM
TGI (KM20L2 colon): > 100 µM
TGI (RPMI-8226 leukemia): > 100 µM
TGI (IGROV1 ovarian): > 100 µM
TGI (MOLT-4 leukemia): > 100 µM
TGI (UACC-62 melanoma): > 100 µM
TGI (DMS 114 small cell lung): > 100 µM
TGI (NCI-H522 lung): > 100 µM

O=S1(=O)c2ccccc2N(O)C2=NCCN21
TGI (UO-31 renal): > 100 µM
TGI (786-0 renal): > 100 µM
TGI (KM20L2 colon): > 100 µM
TGI (RPMI-8226 leukemia): > 100 µM
TGI (IGROV1 ovarian): > 100 µM
TGI (MOLT-4 leukemia): > 100 µM
TGI (UACC-62 melanoma): > 100 µM
TGI (DMS 114 small cell lung): > 100 µM
TGI (NCI-H522 lung): > 100 µM

COc1ccc(C(=O)C2CCC(C(=O)O)C2)cc1 (configuration not stated)
TGI (UO-31 renal): > 100 µM
TGI (786-0 renal): > 100 µM
TGI (KM20L2 colon): > 100 µM
TGI (RPMI-8226 leukemia): > 100 µM
TGI (IGROV1 ovarian): > 100 µM
TGI (MOLT-4 leukemia): > 100 µM
TGI (UACC-62 melanoma): > 100 µM
TGI (DMS 114 small cell lung): > 100 µM
TGI (NCI-H522 lung): > 100 µM

CCN(CC)CCN(CC)CC.CCN(CC)CCN(CC)CC.[Cu+2].[Cu+2].[O-][Cl+3]([O-])([O-])[O-].[OH3+].[OH3+]
GI50 (UO-31 renal): > 100 µM
TGI (UO-31 renal): > 100 µM
GI50 (786-0 renal): 46 µM
TGI (786-0 renal): > 100 µM
GI50 (KM20L2 colon): 23.9 µM
TGI (KM20L2 colon): 61.4 µM
GI50 (RPMI-8226 leukemia): 83.2 µM
TGI (RPMI-8226 leukemia): > 100 µM
GI50 (IGROV1 ovarian): 29.4 µM
TGI (IGROV1 ovarian): 87.9 µM
GI50 (MOLT-4 leukemia): 91.4 µM
TGI (MOLT-4 leukemia): > 100 µM
GI50 (UACC-62 melanoma): 18.3 µM
TGI (UACC-62 melanoma): 36.4 µM
GI50 (DMS 114 small cell lung): 16.6 µM
TGI (DMS 114 small cell lung): 32.6 µM
GI50 (NCI-H522 lung): 25.6 µM
TGI (NCI-H522 lung): 55.2 µM

CCOC(=O)C12CCCC1(O)N(NC(=O)OC)C(C)=C2C(=O)OC (configuration not stated)
TGI (UO-31 renal): > 100 µM
TGI (786-0 renal): 92.2 µM
TGI (KM20L2 colon): > 100 µM
TGI (RPMI-8226 leukemia): > 100 µM
TGI (IGROV1 ovarian): > 100 µM
TGI (MOLT-4 leukemia): > 100 µM
TGI (UACC-62 melanoma): > 100 µM
TGI (DMS 114 small cell lung): > 100 µM
TGI (NCI-H522 lung): > 100 µM

CC(C)(C)C(=O)N1C(C(=O)O)Cc2ccccc2[C@@H]1Cc1ccccc1 (some centres not stated)
TGI (786-0 renal): > 100 µM
TGI (KM20L2 colon): > 100 µM
TGI (RPMI-8226 leukemia): > 100 µM
TGI (IGROV1 ovarian): > 100 µM
TGI (MOLT-4 leukemia): > 100 µM
TGI (UACC-62 melanoma): > 100 µM
TGI (DMS 114 small cell lung): > 100 µM
TGI (NCI-H522 lung): > 100 µM

CSC(=NC(=O)c1ccccc1Cl)SCCSC(=NC(=O)c1ccccc1Cl)SC
TGI (UO-31 renal): > 100 µM
TGI (786-0 renal): > 100 µM
TGI (KM20L2 colon): > 100 µM
TGI (RPMI-8226 leukemia): > 100 µM
TGI (IGROV1 ovarian): > 100 µM
TGI (MOLT-4 leukemia): > 100 µM
TGI (UACC-62 melanoma): > 100 µM
TGI (DMS 114 small cell lung): > 100 µM
TGI (NCI-H522 lung): > 100 µM

CN(C)CCNc1ccc2ncn3c4ccc(O)cc4c(=O)c1c23
TGI (UO-31 renal): 8.06 µM
TGI (786-0 renal): 13.3 µM
TGI (KM20L2 colon): 12.9 µM
TGI (RPMI-8226 leukemia): 13.1 µM
TGI (IGROV1 ovarian): 8.87 µM
TGI (MOLT-4 leukemia): 10.5 µM
TGI (UACC-62 melanoma): 15.9 µM
TGI (DMS 114 small cell lung): 16.8 µM
TGI (NCI-H522 lung): 5.68 µM
TGI (DU-145 prostate): 10.8 µM

c1ccc(SC(Sc2ccccc2)=C2CCC2)cc1
TGI (UO-31 renal): > 100 µM
TGI (786-0 renal): > 100 µM
TGI (KM20L2 colon): > 100 µM
TGI (RPMI-8226 leukemia): > 100 µM
TGI (MOLT-4 leukemia): > 100 µM
TGI (UACC-62 melanoma): > 100 µM
TGI (DMS 114 small cell lung): > 100 µM
TGI (NCI-H522 lung): > 100 µM

O=[N+]([O-])c1nccn1CC(O)c1ccccc1 (configuration not stated)
TGI (UO-31 renal): > 100 µM
TGI (786-0 renal): > 100 µM
TGI (KM20L2 colon): > 100 µM
TGI (RPMI-8226 leukemia): > 100 µM
TGI (IGROV1 ovarian): > 100 µM
TGI (MOLT-4 leukemia): > 100 µM
TGI (UACC-62 melanoma): > 100 µM
TGI (DMS 114 small cell lung): > 100 µM
TGI (NCI-H522 lung): > 100 µM

CCOC(=O)C1(C(=O)OCC)C(C(C)(C)C)=C(C)c2ccccc21
TGI (UO-31 renal): 47.3 µM
TGI (786-0 renal): 29.7 µM
TGI (KM20L2 colon): 28.2 µM
TGI (RPMI-8226 leukemia): 55.8 µM
TGI (IGROV1 ovarian): 36 µM
TGI (MOLT-4 leukemia): > 100 µM
TGI (UACC-62 melanoma): 26 µM
TGI (DMS 114 small cell lung): 26.5 µM
TGI (NCI-H522 lung): 22.2 µM

Cc1ccc(NCC2(/N=C/c3ccccc3)OC(CO)C(O)C2O)cc1 (configuration not stated)
TGI (UO-31 renal): > 100 µM
TGI (786-0 renal): > 100 µM
TGI (KM20L2 colon): 49.4 µM
TGI (RPMI-8226 leukemia): > 100 µM
TGI (IGROV1 ovarian): > 100 µM
TGI (MOLT-4 leukemia): > 100 µM
TGI (UACC-62 melanoma): > 100 µM
TGI (DMS 114 small cell lung): > 100 µM
TGI (NCI-H522 lung): > 100 µM

CN(C)c1ccc(/C=c2\sc3nnc(-c4ccco4)n3c2=O)cc1
TGI (UO-31 renal): > 100 µM
TGI (786-0 renal): > 100 µM
TGI (KM20L2 colon): > 100 µM
TGI (RPMI-8226 leukemia): > 100 µM
TGI (IGROV1 ovarian): > 100 µM
TGI (MOLT-4 leukemia): > 100 µM
TGI (UACC-62 melanoma): > 100 µM
TGI (DMS 114 small cell lung): > 100 µM
TGI (NCI-H522 lung): > 100 µM

O=C(C[n+]1ccccc1)N/N=C(/CCC(=O)N(Cc1ccccc1)Cc1ccccc1)CC(=O)c1ccccc1
TGI (UO-31 renal): > 100 µM
TGI (786-0 renal): > 100 µM
TGI (KM20L2 colon): > 100 µM
TGI (RPMI-8226 leukemia): > 100 µM
TGI (IGROV1 ovarian): > 100 µM
TGI (MOLT-4 leukemia): > 100 µM
TGI (UACC-62 melanoma): > 100 µM
TGI (DMS 114 small cell lung): > 100 µM
TGI (NCI-H522 lung): > 100 µM
